According to patent publication US20250136606A1, “MODULATORS OF TRPML, THEIR COMPOSITIONS AND METHODS OF USE” (Caraway Therapeutics, Inc., priority 2021, published 2025):

Experiments:
Assay type in all cases: cell-based
Details in all cases: fluorescent calcium assay
TRPML1 = TRPML1 (Homo sapiens, UniProt Q9GZU1); assay: Fluorescent TRPML1 assay (Fluo4-AM calcium fluorescence in doxycycline-induced HEK-293 Trex cells)
Procedure, shortened: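 EC50 values come from non-linear regression of percent activity, normalized to on-plate positive and negative controls, with fluorescence read at 480 nm excitation and 540 nm emission. Fluo4-AM-loaded (1 µM) doxycycline-induced HEK-293 Trex cells expressing mutated human TRPML1 were exposed in 10 mM calcium Ringer's to 6 nM–20 µM compound, in triplicate.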

TRPML2 = target: T1, TRPML2 (Homo sapiens, UniProt Q8IZK6); assay: Fluorescent TRPML2 assay (performed as for TRPML1, substituting the TRPML2 subtype)
T1 construct: expressed in transfected cells
T1 sequence (Q8IZK6 1-566): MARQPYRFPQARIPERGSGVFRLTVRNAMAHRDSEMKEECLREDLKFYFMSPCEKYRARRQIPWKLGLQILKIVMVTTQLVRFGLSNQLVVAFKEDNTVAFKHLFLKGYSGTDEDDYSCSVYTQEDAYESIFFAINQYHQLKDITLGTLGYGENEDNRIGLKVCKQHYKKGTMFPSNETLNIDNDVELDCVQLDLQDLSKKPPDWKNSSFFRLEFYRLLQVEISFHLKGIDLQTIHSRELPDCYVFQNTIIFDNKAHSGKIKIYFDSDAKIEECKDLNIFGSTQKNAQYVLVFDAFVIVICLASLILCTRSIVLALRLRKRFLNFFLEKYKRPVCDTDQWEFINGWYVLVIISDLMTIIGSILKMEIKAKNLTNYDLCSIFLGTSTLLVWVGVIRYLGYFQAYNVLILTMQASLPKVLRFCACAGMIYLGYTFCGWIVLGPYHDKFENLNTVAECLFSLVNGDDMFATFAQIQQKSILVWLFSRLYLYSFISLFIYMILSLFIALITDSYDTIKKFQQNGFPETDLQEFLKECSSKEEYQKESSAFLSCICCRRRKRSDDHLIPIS
Procedure, shortened: (§1)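 Agonist activity is scored as percent of plate controls from Fluo4 fluorescence after dye-loaded, doxycycline-induced HEK-293 Trex cells meet compound in high-calcium (10 mM) Ringer's. Compounds run in half-log dilutions from 20 micromolar final, in triplicate.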

TRPML3 = target: T2, TRPML3 (Homo sapiens, UniProt Q8TDD5); assay: Fluorescent TRPML3 assay (performed as for TRPML1, substituting the TRPML3 subtype)
T2 construct: expressed in transfected cells
T2 sequence (Q8TDD5 1-553): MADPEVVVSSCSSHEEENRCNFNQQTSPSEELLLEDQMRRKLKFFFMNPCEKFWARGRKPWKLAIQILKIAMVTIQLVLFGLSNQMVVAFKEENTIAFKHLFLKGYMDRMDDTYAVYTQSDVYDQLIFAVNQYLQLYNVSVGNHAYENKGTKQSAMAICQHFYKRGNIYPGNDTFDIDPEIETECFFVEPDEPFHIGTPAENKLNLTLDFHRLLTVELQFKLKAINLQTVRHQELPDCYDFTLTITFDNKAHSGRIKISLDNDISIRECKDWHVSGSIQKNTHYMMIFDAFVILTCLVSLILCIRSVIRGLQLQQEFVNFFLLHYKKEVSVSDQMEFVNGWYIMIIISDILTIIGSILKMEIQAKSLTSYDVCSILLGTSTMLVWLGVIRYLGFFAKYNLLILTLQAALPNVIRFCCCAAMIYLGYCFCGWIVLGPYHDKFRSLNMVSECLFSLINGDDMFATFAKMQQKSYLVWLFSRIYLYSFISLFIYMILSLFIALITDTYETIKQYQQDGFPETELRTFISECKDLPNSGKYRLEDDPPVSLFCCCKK
Procedure, shortened: as §1

Chain of TRPML1 (Q9GZU1 whole entry L15A/L16A/L577A/L578A, form open): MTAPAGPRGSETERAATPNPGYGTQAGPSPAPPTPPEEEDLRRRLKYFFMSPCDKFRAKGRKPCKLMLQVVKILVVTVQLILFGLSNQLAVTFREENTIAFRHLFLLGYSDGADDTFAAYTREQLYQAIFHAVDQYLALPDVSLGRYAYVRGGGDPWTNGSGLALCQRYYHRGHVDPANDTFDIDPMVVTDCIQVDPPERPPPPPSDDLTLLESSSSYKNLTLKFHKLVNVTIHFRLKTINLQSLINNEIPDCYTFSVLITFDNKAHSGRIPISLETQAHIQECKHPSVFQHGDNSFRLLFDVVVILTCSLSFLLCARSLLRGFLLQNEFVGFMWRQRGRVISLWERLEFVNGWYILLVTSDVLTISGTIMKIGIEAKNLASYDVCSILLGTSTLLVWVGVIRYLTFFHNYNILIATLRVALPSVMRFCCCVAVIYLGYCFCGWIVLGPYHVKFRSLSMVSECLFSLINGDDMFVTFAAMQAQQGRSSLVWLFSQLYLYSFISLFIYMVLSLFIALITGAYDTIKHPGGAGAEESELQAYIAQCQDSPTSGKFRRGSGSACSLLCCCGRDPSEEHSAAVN

EC50 (TRPML1) | EC50 (TRPML2) | EC50 (TRPML3) | SMILES
500 to 2000 nM | > 2000 nM | 500 to 2000 nM | C[C@@H]1CN(c2ncnc3c2c(N2CCC[C@H]2C)cn3-c2cccc(Cl)c2)CCN1C(=O)OC(C)(C)C [Compound 299, tert-butyl (R)-4-(7-(3-chlorophenyl)-5-((R)-2-methylpyrrolidin-1-yl)-7H-pyrrolo[2,3-d]pyrimidin-4-yl)-2-methylpiperazine-1-carboxylate]
< 100 nM | 500 to 2000 nM | < 100 nM | C[C@@H]1CN(c2ncnc3c2c(N2CCC(F)(F)C2)cn3-c2cccc(Cl)c2)CCN1C(=O)OC(C)(C)C [Compound 300, tert-butyl (R)-4-(7-(3-chlorophenyl)-5-(3,3-difluoropyrrolidin-1-yl)-7H-pyrrolo[2,3-d]pyrimidin-4-yl)-2-methylpiperazine-1-carboxylate]
100 to 500 nM | 500 to 2000 nM | 100 to 500 nM | COc1cc(-n2cc(C3CC3)c3c(N4CCN(C(=O)OC(C)(C)C)C[C@@H]4C)ncnc32)cc(F)c1F [Compound 301, tert-butyl (S)-4-(5-cyclopropyl-7-(3,4-difluoro-5-methoxyphenyl)-7H-pyrrolo[2,3-d]pyrimidin-4-yl)-3-methylpiperazine-1-carboxylate]
500 to 2000 nM | > 2000 nM | 100 to 500 nM | COc1cc(C#N)cc(-n2cc(C3CC3)c3c(N4CCN(C(=O)OC(C)(C)C)C[C@@H]4C)ncnc32)c1 [Compound 302, tert-butyl (S)-4-(7-(3-cyano-5-methoxyphenyl)-5-cyclopropyl-7H-pyrrolo[2,3-d]pyrimidin-4-yl)-3-methylpiperazine-1-carboxylate]
100 to 500 nM | 500 to 2000 nM | 100 to 500 nM | C[C@H]1CN(C(=O)OC(C)(C)C)CCN1c1ncnc2c1c(C1CC1)cn2-c1cc(C#N)cc(OC(F)(F)F)c1 [Compound 303, tert-butyl (S)-4-(7-(3-cyano-5-(trifluoromethoxy)phenyl)-5-cyclopropyl-7H-pyrrolo[2,3-d]pyrimidin-4-yl)-3-methylpiperazine-1-carboxylate]
500 to 2000 nM | 500 to 2000 nM | 100 to 500 nM | Cc1nccnc1-c1cn(-c2cccc(OC(F)(F)F)c2)c2ncnc(N3CCN(C(=O)OC(C)(C)C)C[C@@H]3C)c12 [Compound 304, tert-butyl (S)-3-methyl-4-(5-(3-methylpyrazin-2-yl)-7-(3-(trifluoromethoxy)phenyl)-7H-pyrrolo[2,3-d]pyrimidin-4-yl)piperazine-1-carboxylate]
500 to 2000 nM | > 2000 nM | 100 to 500 nM | Cc1nccnc1-c1cn(-c2cc(F)c(F)c(F)c2)c2ncnc(N3CCN(C(=O)OC(C)(C)C)C[C@@H]3C)c12 [Compound 305, tert-butyl (S)-3-methyl-4-(5-(3-methylpyrazin-2-yl)-7-(3,4,5-trifluorophenyl)-7H-pyrrolo[2,3-d]pyrimidin-4-yl)piperazine-1-carboxylate]
500 to 2000 nM | 500 to 2000 nM | 100 to 500 nM | Cc1ccc(Cl)cc1-n1cc(N2CCCC2)c2c(N3CCN(C(=O)OC(C)(C)C)C[C@@H]3C)ncnc21 [Compound 306, tert-butyl (S)-4-(7-(5-chloro-2-methylphenyl)-5-(pyrrolidin-1-yl)-7H-pyrrolo[2,3-d]pyrimidin-4-yl)-3-methylpiperazine-1-carboxylate]
500 to 2000 nM | 500 to 2000 nM | < 100 nM | C[C@H]1CN(C(=O)OC(C)(C)C)CCN1c1ncnc2c1c(N1CCC[C@@H]1CO)cn2-c1cc(F)cc(F)c1 [Compound 307, tert-butyl (S)-4-(7-(3,5-difluorophenyl)-5-((R)-2-(hydroxymethyl)pyrrolidin-1-yl)-7H-pyrrolo[2,3-d]pyrimidin-4-yl)-3-methylpiperazine-1-carboxylate]
< 100 nM | < 100 nM | < 100 nM | C[C@H]1CN(C(=O)OC(C)(C)C)CCN1c1ncnc2c1c(N1CCC(F)(F)C1)cn2-c1cccc(Cl)c1 [Compound 308, tert-butyl (S)-4-(7-(3-chlorophenyl)-5-(3,3-difluoropyrrolidin-1-yl)-7H-pyrrolo[2,3-d]pyrimidin-4-yl)-3-methylpiperazine-1-carboxylate]
> 2000 nM | > 2000 nM | 500 to 2000 nM | C[C@H]1CN(C(=O)OC(C)(C)C)CCN1c1ncnc2c1c(N1CCCC1=O)cn2-c1cccc(Cl)c1 [Compound 309, tert-butyl (S)-4-(7-(3-chlorophenyl)-5-(2-oxopyrrolidin-1-yl)-7H-pyrrolo[2,3-d]pyrimidin-4-yl)-3-methylpiperazine-1-carboxylate]
< 100 nM | < 100 nM | < 100 nM | C[C@H]1CN(C(=O)OC(C)(C)C)CCN1c1ncnc2c1c(N1CCCCC1)cn2-c1cccc(Cl)c1 [Compound 310, tert-butyl (S)-4-(7-(3-chlorophenyl)-5-(piperidin-1-yl)-7H-pyrrolo[2,3-d]pyrimidin-4-yl)-3-methylpiperazine-1-carboxylate]
< 100 nM | < 100 nM | < 100 nM | C[C@@H]1CN(c2ncnc3c2c(N2CCCC2)cn3-c2cccc(OC(F)(F)F)c2)CCN1C(=O)OC(C)(C)C [Compound 311, tert-butyl (R)-2-methyl-4-(5-(pyrrolidin-1-yl)-7-(3-(trifluoromethoxy)phenyl)-7H-pyrrolo[2,3-d]pyrimidin-4-yl)piperazine-1-carboxylate]
100 to 500 nM | 500 to 2000 nM | < 100 nM | C[C@H]1CN(C(=O)OC(C)(C)C)CCN1c1ncnc2c1c(N1CCC[C@@H]1CO)cn2-c1cccc(Cl)c1 [Compound 312, tert-butyl (S)-4-(7-(3-chlorophenyl)-5-((R)-2-(hydroxymethyl)pyrrolidin-1-yl)-7H-pyrrolo[2,3-d]pyrimidin-4-yl)-3-methylpiperazine-1-carboxylate]
> 2000 nM | > 2000 nM | 500 to 2000 nM | C[C@@H]1CN(c2ncnc3c2c(N2CCCC2=O)cn3-c2cc(F)c(F)c(F)c2)CCN1C(=O)OC(C)(C)C [Compound 313, tert-butyl (R)-2-methyl-4-(5-(2-oxopyrrolidin-1-yl)-7-(3,4,5-trifluorophenyl)-7H-pyrrolo[2,3-d]pyrimidin-4-yl)piperazine-1-carboxylate]
500 to 2000 nM | > 2000 nM | 100 to 500 nM | COc1cc(-n2cc(C3CC3)c3c(N4CCN(C(=O)OC(C)(C)C)C[C@@H]4C)ncnc32)ccc1F [Compound 317, tert-butyl (S)-4-(5-cyclopropyl-7-(4-fluoro-3-methoxyphenyl)-7H-pyrrolo[2,3-d]pyrimidin-4-yl)-3-methylpiperazine-1-carboxylate]
< 100 nM | 500 to 2000 nM | 100 to 500 nM | C[C@H]1CN(C(=O)OC(C)(C)C(F)(F)F)CCN1c1ncnc2c1c(C1CC1)cn2-c1cc(C#N)ccn1 [Compound 318, 1,1,1-trifluoro-2-methylpropan-2-yl (S)-4-(7-(4-cyanopyridin-2-yl)-5-cyclopropyl-7H-pyrrolo[2,3-d]pyrimidin-4-yl)-3-methylpiperazine-1-carboxylate]
500 to 2000 nM | 500 to 2000 nM | 100 to 500 nM | Cc1nccnc1-c1cn(-c2cc(C#N)ccn2)c2ncnc(N3CCN(C(=O)OC(C)(C)C)C[C@@H]3C)c12 [Compound 319, tert-butyl (S)-4-(7-(4-cyanopyridin-2-yl)-5-(3-methylpyrazin-2-yl)-7H-pyrrolo[2,3-d]pyrimidin-4-yl)-3-methylpiperazine-1-carboxylate]

SMILES | EC50 (TRPML1) | EC50 (TRPML2) | EC50 (TRPML3)
COC(=O)c1nccnc1-c1cn(-c2cccc(Cl)c2)c2ncnc(N3CCN(C(=O)OC(C)(C)C)C[C@@H]3C)c12 [Compound 275, methyl (S)-3-(4-(4-(tert-butoxycarbonyl)-2-methylpiperazin-1-yl)-7-(3-chlorophenyl)-7H-pyrrolo[2,3-d]pyrimidin-5-yl)pyrazine-2-carboxylate] | > 2000 nM | > 2000 nM | 500 to 2000 nM
